Patent US6346543B1, “Use of a taxoid to treat abnormal cell proliferation in the brain” (priority 1998, dated 2002)
Values joined by “and” are separate entries in the source; they are usually repeats but may differ in a detail not shown here. Equal values may be shown once.

How the values were obtained:
[1] = test system: intracranially implanted human glioblastoma U251; assay: Antitumor activity against intracranially implanted U251 glioblastoma in NCr-nu mice (RP-36); type: in vivo; settings: for DAYS OF DEATH: individual animals
Protocol: The treatment schedule of the intracranially implanted U251 glioblastoma cells was iv, once daily, every sixth day for three treatments (q6d×3), beginning on day four post-implant. […] For the intracranially implanted studies, the compounds were evaluated based on their ability to increase the life span of the animals. The positive control used for both of these tumor models was nitrosourea.
The oversight committee was the Southern Research Institutional Animal Care and Use Committee; the protocol used was IACUC No. 96-8-50.
(§1) Product (Ia) was prepared in 5% ethanol, 5% tween 80, 90% D5W
(§2) Product (Ia) was administered in 0.4 ml/mouse based on a total body weight average.
(§3) Nitrosourea was administered 0.1 ml/10 g of body weight.
(§4) Any intracranially implanted animal that appeared to be moribund was euthanized for humane purposes. Since efficacy studies fall within this category of basic research, experiment termination was based on resultants that were determined to be optimal.
Six to eight week old athymic NCr-nu female mice were used for the intracranially implanted U251 trials.
The cells were injected into the cerebrum to the right of the midline with a 25 gauge, ⅜ inch, stainless steel needle. Cultured cells were used for the U251 experiment (RP-36). The treatment schedule was q6d×3, iv, beginning on day four, post-implant. […] The treatment schedule was q4d×3, iv, beginning on day two, post-implant. Nitrosourea was given in each experiment for comparative purposes because of its known activity against CNS tumors.

[2] = test system: intracranially implanted human glioblastoma SF-295; assay: Antitumor activity against intracranially implanted SF-295 glioblastoma in NCr-nu mice (RP-38); type: in vivo; settings: for DAYS OF DEATH: individual animals
Description: Four studies were initiated to evaluate the response of U251 and SF-295 glioblastomas to treatment with product (Ia). In the two studies, U251 and SF-295 glioblastomas were initiated from intracranially implanted cells at a volume of 10^6 cells per mouse. The treatment schedule of the intracranially implanted U251 glioblastoma cells was iv, once daily, every sixth day for three treatments (q6d×3), beginning on day four post-implant. The treatment schedule of the intracranially implanted SF-295 glioblastoma cells was iv, once daily, every fourth day for three treatments (q4d×3), beginning on day two post-implant. For the intracranially implanted studies, the compounds were evaluated based on their ability to increase the life span of the animals. The positive control used for both of these tumor models was nitrosourea.
In these experiments, general DCTD, NCI techniques and procedures for in vivo efficacy studies were modified for special application (In Vivo Cancer Models, NIH Publication No. 84-2635, 1984). These studies were conducted in approved facilities (AAALAC Registration No. 000643, AALAS Membership No. 840723001, USDA Registration No. 64-R-001, OPPR, PHS, NIH, AWA, Assurance No. A3046-01). These facilities are ISO 9001 certified. The oversight committee was the Southern Research Institutional Animal Care and Use Committee; the protocol used was IACUC No. 96-8-50.
as §1
Nitrosourea was prepared in 2% ethanol, 98% physiological saline.
as §2, §3, §4
Six to eight week old athymic NCr-nu female mice were used for the intracranially implanted U251 trials. Six to eight week old athymic NCr-nu male mice were used for the intracranially implanted SF-295 trials.
As previously mentioned, this experiment was designed to evaluate the activity of product (Ia) against intracranially U251 and SF-295 glioblastomas in athymic MCr-nu mice. The dosages for product (Ia) were 30, 20 and 13.4 mg/kg/dose. For the two intracranially implanted experiments, cells were prepared at a concentration of 3.33×10^7 cells per ml of media and injected at a volume of 0.03 ml per mouse. The cells were injected into the cerebrum to the right of the midline with a 25 gauge, ⅜ inch, stainless steel needle. Cultured cells were used for the U251 experiment (RP-36). The treatment schedule was q6d×3, iv, beginning on day four, post-implant. A tumor brei, made from solid tumor, was used for the SF-295 experiment (RP-38). The treatment schedule was q4d×3, iv, beginning on day two, post-implant. Nitrosourea was given in each experiment for comparative purposes because of its known activity against CNS tumors. The dosages were 27, 18 and 12 mg/kg/dose and the treatment schedule was the same as the treatment schedule for product (Ia) in each experiment.

[3] = 18.0 mg/kg/dose IV Q6D×3(4), listed as nitrosourea
[4] = 18.0 mg/kg/dose IV Q4D×3(2), listed as nitrosourea
[5] = 27.0 mg/kg/dose IV Q4D×3(2), listed as nitrosourea

SMILES: NC(=O)NN=O [Nitrosourea, reference compound]
- 122-DAY SURV./TOTAL ([1]; 12.0 mg/kg/dose IV Q6D×3(4)): 0/10
- % ILS ([1]; 12.0 mg/kg/dose IV Q6D×3(4)): +51%
- MEDIAN DAY OF DEATH ([1]; 12.0 mg/kg/dose IV Q6D×3(4)): 51.5 days
- DAYS OF DEATH ([1]; 12.0 mg/kg/dose IV Q6D×3(4)): 69 day (2×) and 80 day and 41 day and 45 day and 49 day (3×) and 54 day and 66 day
- % ILS ([1]; 12.0 mg/kg/dose IV Q6D×3(4), listed as nitrosourea): 51%
- 122-DAY SURV./TOTAL ([1]; 18.0 mg/kg/dose IV Q6D×3(4)): 7/10
- % ILS ([1]; 18.0 mg/kg/dose IV Q6D×3(4)): +205%
- MEDIAN DAY OF DEATH ([1]; 18.0 mg/kg/dose IV Q6D×3(4)): 104.0 days
- DAYS OF DEATH ([1]; 18.0 mg/kg/dose IV Q6D×3(4)): 94 day and 104 day (2×)
- 122-DAY SURV./TOTAL [1, 3]: seven of ten
- % ILS [1, 3]: 205%
- 122-DAY SURV./TOTAL ([1]; 27.0 mg/kg/dose IV Q6D×3(4)): 10/10
- 122-DAY SURV./TOTAL ([1]; 27.0 mg/kg/dose IV Q6D×3(4), listed as nitrosourea): ten of ten
- MTD ([1]; iv q6d×3, U251 experiment RP-36): 27 mg/kg/dose
- 68 DAY SURV./TOTAL ([2]; 12.0 mg/kg/dose IV Q4D×3(2)): 0/10
- % ILS ([2]; 12.0 mg/kg/dose IV Q4D×3(2)): +106%
- MEDIAN DAY OF DEATH ([2]; 12.0 mg/kg/dose IV Q4D×3(2)): 33.0 days
- DAYS OF DEATH ([2]; 12.0 mg/kg/dose IV Q4D×3(2)): 33 day (5×) and 40 day and 22 day and 23 day and 26 day (2×)
- % ILS ([2]; 12.0 mg/kg/dose IV Q4D×3(2), listed as nitrosourea): 106%
- 68 DAY SURV./TOTAL ([2]; 18.0 mg/kg/dose IV Q4D×3(2)): 1/10
- % ILS ([2]; 18.0 mg/kg/dose IV Q4D×3(2)): +131%
- MEDIAN DAY OF DEATH ([2]; 18.0 mg/kg/dose IV Q4D×3(2)): 37.0 days
- DAYS OF DEATH ([2]; 18.0 mg/kg/dose IV Q4D×3(2)): 40 day and 41 day and 33 day and 34 day (2×) and 35 day and 37 day (3×)
- 68 DAY SURV./TOTAL [2, 4]: one 68-day survivor out of ten animals
- % ILS [2, 4]: 131%
- 68 DAY SURV./TOTAL ([2]; 27.0 mg/kg/dose IV Q4D×3(2)): 2/10
- % ILS ([2]; 27.0 mg/kg/dose IV Q4D×3(2)): +50%
- MEDIAN DAY OF DEATH ([2]; 27.0 mg/kg/dose IV Q4D×3(2)): 24.0 days
- DAYS OF DEATH ([2]; 27.0 mg/kg/dose IV Q4D×3(2)): 64 day and 15 day and 16 day (2×) and 19 day and 29 day and 37 day and 56 day
- 68 DAY SURV./TOTAL [2, 5]: two 68-day survivors out of ten animals
- % ILS [2, 5]: 50%
- MTD ([2]; in vivo, iv): 27 mg/kg/dose
